Source: patent US20220257557A1, “PHARMACEUTICAL COMPOSITION FOR PREVENTING OR TREATING NEUROLOGICAL DISEASES” (GLACEUM INC., priority 2019, published 2022)

Tests used:
[1] = molecular target: T1, rePON1 (PON1, paraoxonase 1) (Homo sapiens, UniProt P27169); assay: Prevention of inhibition of PON1 activity by oxidized linolenic acid (TBBL substrate); assay type: biochemical; conditions: for activity at 30 µM: 30 μM compound with rePON1 30 min, then oxidized linolenic acid 2 h, TBBL substrate, normal control 100, negative control 73.64; for extent to which inhibition of rePON1 activity was prevented, compared with glabridin: compound 30 μM vs glabridin 30 μM; for extent to which inhibition of rePON1 activity was prevented, compared with glabridin / inhibition of rePON1 activity by oxidized linolenic acid: result in words; for inhibition of rePON1 activity by oxidized linolenic acid: compound 30 μM
T1 construct: purchased Thermo Corp. RP-75678
T1 sequence (P27169 whole entry): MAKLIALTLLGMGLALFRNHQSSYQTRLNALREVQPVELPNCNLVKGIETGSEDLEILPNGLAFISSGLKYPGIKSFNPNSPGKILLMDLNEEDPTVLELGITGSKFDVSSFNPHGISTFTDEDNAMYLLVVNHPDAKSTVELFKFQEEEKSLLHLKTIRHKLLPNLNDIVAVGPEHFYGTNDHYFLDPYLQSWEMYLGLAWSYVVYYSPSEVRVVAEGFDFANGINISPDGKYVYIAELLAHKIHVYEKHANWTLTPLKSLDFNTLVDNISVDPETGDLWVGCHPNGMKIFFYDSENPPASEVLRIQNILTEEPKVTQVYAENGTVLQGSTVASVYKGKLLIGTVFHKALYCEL
Procedure: Based on the fact that the activity of PON1 is inhibited when PON1 is treated with oxidized linolenic acid, an experiment was conducted to confirm the prevention of inhibition of PON1 activity. The activity of PON1 was measured using TBBL (5-thiobutyl butyrolactones) as a substrate.
Specifically, after 9.6 μl of 50 mM Tris-HCl containing 1 mM CaCl2 was added to each of […] Eppendorf tubes, 0.2 μl of each of the compounds of Formulas III-1, IV-1, V-1, IV-2, V-2, II-1, IV-3, V-3, III-2, IV-4, V-4, II-2 and III-3 and glabridine was added to each tube so that the concentration thereof was 30 μM. 0.2 μl of rePON1 (RP-75678, Thermo Corp.) was added to each of the 12 tubes and mixed. Thereafter, each of the mixtures was allowed to react at room temperature for 30 minutes, and 0.5 μl of 1 mM oxidized linolenic acid (OX-LA) dissolved in DMSO was added thereto in order to inhibit rePON1 activity, followed by reaction at room temperature for 2 hours, thus preparing solutions (I).
25 μl of 0.5 mM DTNB dissolved in 50 mM Tris-HCl containing 1 mM CaCl2 was dispensed into each well of a 384-well plate, and then 10 μl of each of the solutions (I) was dispensed into each well, and 20 μl of 2 mM TBBL dissolved in 50 mM Tris-HCl containing 1 mM CaCl2 was added to each well, thus preparing samples. The absorbance of each of the samples at 420 nm was measured using a spectrometer (SpectraMax M2) at 37° C. every 2 minutes for 1 hour.
In addition, a negative control was prepared in the same manner as the above-described method, except that, for the preparation of a solution, 0.2 μl of DMSO was added instead of the compounds of Formulas III-1, IV-1, V-1, IV-2, V-2, II-1, IV-3, V-3, III-2, IV-4, V-4, II-2 and III-3 and glabridin. Furthermore, a normal control was prepared in the same manner as the above-described method, except that, for the preparation of a solution, 0.2 μl of DMSO was added instead of the above-described compounds and glabridin and that oxidized linolenic acid was not added. The absorbance of each of the negative control and the normal control was measured.
Using SoftMax Pro software, the activity of PON1 was calculated from the absorbance using the following Equation 1, and the results are shown in Table 1 below.
Activity=(absorbancesample−absorbanceblank)/(absorbancePON1−absorbanceblank)*100 [Equation 1]

BV2 cells [2] = assay: iNOS and COX-2 expression after LPS (Western blot); assay type: cell-based; conditions: 3 h pretreatment (Table 3 amounts), LPS 1 μg/ml 24 h
Procedure: (§1) RAW264.7 cells or BV2 cells (5×10^5 cells/well) were dispensed in DMEM containing 10% heat-inactivated FBS, 10 IU/mL penicillin G, 100 μg/mL streptomycin and 2 mM L-glutamine and cultured in a 5% CO2 incubator at a temperature of 37° C.
(§2) The compound of Formula III-3, III-4, V-3, III-1, IV-1, V-1, IV-2, V-2 or II-2 was added to the RAW264.7 cells or BV2 cells, and the toxicities of the compounds were determined by MTT assay.
(§3) The pretreated cells of Experimental Example 4-1 were treated with 1 μg/ml of LPS for 24 hours, and then the expression levels of iNOS and COX-2 were observed through Western blot, and the production of NO and PGE2 was measured.

RAW264.7 cells [3] = assay: iNOS and COX-2 expression after LPS (Western blot); assay type: cell-based; conditions: 3 h pretreatment (Table 3 amounts), LPS 1 μg/ml 24 h
Procedure: as §1, §2, §3

BV2 cells [4] = assay: NO and PGE2 production after LPS; assay type: cell-based; conditions: 3 h pretreatment (Table 3 amounts), LPS 1 μg/ml 24 h
Procedure: as §1, §2, §3

RAW264.7 cells [5] = assay: NO and PGE2 production after LPS; assay type: cell-based; conditions: 3 h pretreatment (Table 3 amounts), LPS 1 μg/ml 24 h
Procedure: as §1, §2, §3

BV2 cells [6] = assay: IL-1β, IL-6 and TNF-α mRNA expression after LPS (RT-PCR); assay type: cell-based; conditions: 3 h pretreatment (Table 3 amounts), LPS 1 μg/ml 6 h
Procedure: as §1, §2
(§4) The pretreated cells of Experimental Example 4-1 were treated with 1 μg/ml of LPS for 6 hours, and then the mRNA expression level of the cytokine IL-1β, IL-6 or TNF-α produced in the inflammatory response was analyzed using RT-PCR.

RAW264.7 cells [7] = assay: as above; assay type: cell-based; conditions: 3 h pretreatment (Table 3 amounts), LPS 1 μg/ml 6 h
Procedure: as §1, §2, §4

RAW264.7 cells [8] = assay: Transcription of NF-κB protein (p65, p50) into nucleus after LPS (Western blot); assay type: cell-based; conditions: 3 h pretreatment (Table 3 amounts), LPS 1 μg/ml 1 h
Procedure: RAW264.7 cells or BV2 cells (5×10^5 cells/well) were dispensed in DMEM containing 10% heat-inactivated FBS, 10 IU/mL penicillin G, 100 μg/mL streptomycin and 2 mM L-glutamine and cultured in a 5% CO2 incubator at a temperature of 37° C. […]
(§5) The pretreated cells of Experimental Example 4-1 were treated with 1 μg/ml of LPS for 1 hour, and then the level of transcription of NF-κB protein into the nucleus of each of p65 and p50 was analyzed through Western blot.

BV2 cells [9] = assay: as above; assay type: cell-based; conditions: 3 h pretreatment (Table 3 amounts), LPS 1 μg/ml 1 h
Procedure: as §1, §2, §5

SMILES	activity at 30 µM [1]	extent to which inhibition of rePON1 activity was prevented, compared with glabridin [1]	inhibition of rePON1 activity by oxidized linolenic acid [1]	expression level of COX-2 (BV2 cells [2])	expression level of iNOS (BV2 cells [2])	expression level of COX-2 (RAW264.7 cells [3])	expression level of iNOS (RAW264.7 cells [3])	production of NO (BV2 cells [4])	production of PGE2 (BV2 cells [4])	production of NO (RAW264.7 cells [5])	production of PGE2 (RAW264.7 cells [5])	mRNA expression level of IL-1β (BV2 cells [6])	mRNA expression level of IL-6 (BV2 cells [6])	mRNA expression level of TNF-α (BV2 cells [6])	mRNA expression level of IL-1β (RAW264.7 cells [7])	mRNA expression level of IL-6 (RAW264.7 cells [7])	mRNA expression level of TNF-α (RAW264.7 cells [7])	level of transcription of NF-κB protein into the nucleus, p50 (RAW264.7 cells [8])	level of transcription of NF-κB protein into the nucleus, p65 (RAW264.7 cells [8])	level of transcription of NF-κB protein into the nucleus, p50 (BV2 cells [9])	further results
CC1(C)C=Cc2c(ccc3c2OCC(c2ccc(O)cc2O)=C3)O1 [Formula II-1, 4-(8,8-dimethyl-2,8-dihydropyrano[2,3-f]chromen-3-yl)benzene-1,3-diol]	85.9%	greater	prevented	–	–	–	–	–	–	–	–	–	–	–	–	–	–	–	–	–	–
CCCOc1ccc(C2=Cc3ccc4c(c3OC2)C=CC(C)(C)O4)c(O)c1 [Formula II-2, 2-(8,8-dimethyl-2,8-dihydropyrano[2,3-f]chromen-3-yl)-5-propoxyphenol]	–	greater	prevented	concentration-dependently decreased	concentration-dependently decreased	concentration-dependently decreased	concentration-dependently decreased	concentration-dependently decreased	concentration-dependently decreased	concentration-dependently decreased	concentration-dependently decreased	concentration-dependently decreased	concentration-dependently decreased	concentration-dependently decreased	concentration-dependently decreased	concentration-dependently decreased	concentration-dependently decreased	concentration-dependently decreased	concentration-dependently decreased	concentration-dependently decreased	level of transcription of NF-κB protein into the nucleus, p65 (BV2 cells [9]): concentration-dependently decreased
CCOc1cc(O)ccc1C1COc2c(ccc3c2CCC(C)(C)O3)C1 (stereo not shown) [Formula III-2, 4-(8,8-dimethyl-2,3,4,8,9,10-hexahydropyrano[2,3-f]chromen-3-yl)-3-ethoxyphenol]	83.8%	greater	prevented	–	–	–	–	–	–	–	–	–	–	–	–	–	–	–	–	–	–
CCc1ccc(C2COc3c(ccc4c3CCC(C)(C)O4)C2)c(O)c1 (stereo not shown) [Formula III-3, 2-(8,8-dimethyl-2,3,4,8,9,10-hexahydropyrano[2,3-f]chromen-3-yl)-5-ethylphenol]	–	greater	prevented	concentration-dependently decreased	concentration-dependently decreased	concentration-dependently decreased	concentration-dependently decreased	concentration-dependently decreased	concentration-dependently decreased	concentration-dependently decreased	concentration-dependently decreased	concentration-dependently decreased	concentration-dependently decreased	concentration-dependently decreased	concentration-dependently decreased	concentration-dependently decreased	concentration-dependently decreased	concentration-dependently decreased	concentration-dependently decreased	concentration-dependently decreased	level of transcription of NF-κB protein into the nucleus, p65 (BV2 cells [9]): concentration-dependently decreased
CCCc1ccc(C2COc3c(ccc4c3CCC(C)(C)O4)C2)c(O)c1 (stereo not shown) [Formula III-4, 2-(8,8-dimethyl-2,3,4,8,9,10-hexahydropyrano[2,3-f]chromen-3-yl)-5-propylphenol]	–	–	–	concentration-dependently decreased	concentration-dependently decreased	concentration-dependently decreased	concentration-dependently decreased	concentration-dependently decreased	concentration-dependently decreased	concentration-dependently decreased	concentration-dependently decreased	concentration-dependently decreased	concentration-dependently decreased	concentration-dependently decreased	concentration-dependently decreased	concentration-dependently decreased	concentration-dependently decreased	concentration-dependently decreased	concentration-dependently decreased	concentration-dependently decreased	level of transcription of NF-κB protein into the nucleus, p65 (BV2 cells [9]): concentration-dependently decreased
CCCc1ccc([C@@H]2COc3c(ccc4c3CCC(C)(C)O4)C2)c(O)c1 [Formula IV-3, (R)-2-(8,8-dimethyl-2,3,4,8,9,10-hexahydropyrano[2,3-f]chromen-3-yl)-5-propylphenol]	90.6%	greater	prevented	–	–	–	–	–	–	–	–	–	–	–	–	–	–	–	–	–	–
CCCCOc1ccc([C@@H]2COc3c(ccc4c3CCC(C)(C)O4)C2)c(O)c1 [Formula IV-4, (R)-2-(8,8-dimethyl-2,3,4,8,9,10-hexahydropyrano[2,3-f]chromen-3-yl)-5-butoxyphenol]	94.1%	greater	prevented	–	–	–	–	–	–	–	–	–	–	–	–	–	–	–	–	–	–
CCCCOc1ccc([C@H]2COc3c(ccc4c3CCC(C)(C)O4)C2)c(O)c1 [Formula V-4, (S)-2-(8,8-dimethyl-2,3,4,8,9,10-hexahydropyrano[2,3-f]chromen-3-yl)-5-butoxyphenol]	94.9%	greater	prevented	–	–	–	–	–	–	–	–	–	–	–	–	–	–	–	–	–	–
